What was measured:
[1] = system: QS-regulated genes lasI, lasR, lasB, rhlI, rhlR, rhlA in P. aeruginosa PAO1; assay: QS-regulated gene expression, lacZ transcriptional fusions in PAO1; type: cell-based, Pseudomonas aeruginosa; conditions: for expression of six QS-regulated genes (lasI, lasR, lasB, rhlI, rhlR, rhlA): QSI at 0.5 mg/ml, 18 hours at 37°C, β-galactosidase; for inhibition of expression of the regulators lasR and rhlR (rank) / impact on rhlI expression relative to naringenin, estradiol and estrone: QSIs at 0.5 mg/ml; for impact on rhlI expression relative to naringenin, estradiol and estrone: naringenin at 1 mg/ml
Method: Figure 6 QSIs modulated QS-regulated genes in P. aeruginosa. The β-galactosidase (b-Gal) activity in Miller unit (MU) of the transcriptional fusions lasI-lacZ (A), lasR-lacZ (B), lasB-lacZ (C), rhlI-lacZ (D), rhlR-lacZ (E), rhlA-lacZ (F), and aecA-lacZ(G) were measured in the presence of estradiol, estrone, estriol, hordenine at 0.5 mg/ml, and naringenin at 1 mg/ml as a positive control and DMSO as a negative control. The statistical significance of each test (n = 5 and three biological replicates) was evaluated by Student's t test (i.e. each test was compared with the DMSO condition). Asterisks indicate statistically different data (p value of ≤0.01).
QS gene transcription in P. aeruginosa PAO1 was monitored using PAO1 strains carrying various gene promoters fused to a lacZ reporter gene, as described in Vandeputte et al., 2010 and Table 1. PAO1 reporter strains were prepared according to Vandeputte et al.. Briefly, 18-hours-old liquid cultures (50 µl) were diluted in order to obtain a starting OD600 nm comprised between 0.02 and 0.03 in fresh LB medium supplemented with 50 mM MOPS pH 7.0 (1 ml), carbenicillin (300 µg/ml) and 10 µl of the QSIs to be tested (OD were measured using a SpectraMax M2 device from Molecular Devices). Test and control QSIs were diluted in 100% DMSO (resulting after addition to the growth medium in a 1% final concentration of DMSO). Cultures were incubated for 18 hours at 37°C with agitation. After incubation, cell densities were assessed spectrophotometrically (OD600 nm) and β-galactosidase assays were performed using the substrate o-nitrophenyl-β-D-galactopyranoside as described previously, [29]. Promoterless-lacZ fusions were used as controls. AHLs were quantified as described in Vandeputte et al.. All tests were performed in quintuplicates and three biological repetitions. The statistical significance of each test was evaluated by conducting Student's t tests and two-way ANOVA combined with the Tukey post-analysis test using the GraphPad Prism software and p values≤0.01 were considered significant.

[2] = system: QS-regulated Ti-plasmid transfer in A. tumefaciens; assay: QS-regulated Ti-plasmid transfer (conjugation) assay; type: cell-based, Agrobacterium tumefaciens; conditions: QSI at 0.1 mg/ml, OC8-HSL 500 pM, 72 h at 24°C
Method: Figure 4 In vitro Ti plasmid transfer frequency in Agrobacterium. The Ti plasmid transfer frequencies were measured in the presence of QSI (A) and the four 1248-diastereoisomeres (B) at 0.1 mg/ml. Histograms represent the cell density of transconjugants (CFU/ml), while black diamonds and squares, those of the donor and recipient strains, respectively. Measurements were performed in quadruplicate and the experiment was repeated twice. The cell densities of transconjugants in the presence of QSI were compared to that of the control in the presence of DMSO with a Mann and Whitney test (α = 0.05). Statistically different values are noted by asterisks.
In A. tumefaciens, the transfer of the Ti-plasmid from a donor cell to a recipient one is controlled by QS. QSI were evaluated for their capacity to reduce plasmid transfer frequency in Agrobacterium. In the plasmid transfer assay, two modified Agrobacterium strains were used: a Ti-plasmid donor, which requires exogenous AHL to transfer a kanamycin-resistant (Km^r) Ti-plasmid, and a rifampicin-resistant (Rif^r) recipient strain, which is free of Ti-plasmid. Overnight cultures of the donor and recipient strains were mixed with 500 pM of oxo-octanoylhomoserine lactone (OC8-HSL) and 0.1 mg/ml of QSI in LBm medium. Each combination was repeated 4 times in microwell plates.

Compound | expression of six QS-regulated genes (lasI, lasR, lasB, rhlI, rhlR, rhlA) [1] | effect on Ti plasmid transfer frequency (words) [2] | effect on Ti plasmid transfer frequency (words) ([2]; listed as estrone) | inhibition of expression of the regulators lasR and rhlR (rank) [1] | impact on rhlI expression relative to naringenin, estradiol and estrone [1] | effect on Ti plasmid transfer frequency (words) ([2]; listed as hordenine)
3-Hydroxy-13-methyl-6,7,8,9,11,12,13,14,15,17-decahydro-cyclopenta[a] phenanthren-16-one [Compound 729, reference compound] | decreased | significantly reduce the plasmid transfer frequency by one order of magnitude | decreased the frequency |  |  | 
C[C@]12CC[C@@H]3c4ccc(O)cc4CC[C@H]3[C@@H]1C[C@@H](O)[C@@H]2O [Estriol, estriol] | decreased | significantly reduce the plasmid transfer frequency by one order of magnitude |  | the least | lower impact | 
CN(C)CCc1ccc(O)cc1 [Compound 3499, hordenine] | decreased | significantly reduce the plasmid transfer frequency by one order of magnitude |  | the most | lower impact | decreased the frequency
